From article PMC11309765, “Mechanism of the blood-brain barrier modulation by cadherin peptides” (Exploration of drug science, 2024)
Entries after “also recorded” stand apart in the source; their conditions may differ. Bridges are numbered along the chain shown (N, C = ends).

How the values were obtained:
EC1 domain of E-cadherin = details: cited from earlier work
From the text: The BBB paracellular porosity can be magnified by Ala-Asp-Thr (ADT) and His-Ala-Val (HAV) peptides that were derived from cadherin sequences to inhibit cadherin-cadherin interactions. The ADT and HAV peptides were designed from the amino acid sequences of the bulge and grove regions in the cadherin EC1 domain, respectively. As BBB modulators (BBBMs), both ADT and/or HAV peptides enhanced brain depositions of various sizes of molecules to the brain parenchyma such as IRdye 800CW, ^3H-daunomycin, adenanthin, or gadolinium-diethylenetriaminepentacetate (Gd-DTPA or gadopent ... || Figure 6. The proposed mechanisms of binding for Ala-Asp-Thr (ADT) and His-Ala-Val (HAV) peptides to extracellular-1 (EC1) domain of cadherin to inhibit cadherin-cadherin interactions. (A) A model to represent cadherin-to-cadherin interactions in the paracellular pathway at the adherens junction. First is the cis-interaction of EC1 and EC2 on two cadherin proteins that are protruding from one side of cell membranes. Second is the trans-interaction of EC1-EC1 from two cadherins that reside in two opposite membranes; (B) the EC1-EC1 interaction with domain swapping between the N-terminal Trp2 an ... || We hypothesized that HAV and ADT peptides prevent cadherin-cadherin interactions by binding to EC1 in the BBB adherens junctions (Figure 6C and D). Cadherin peptides disrupt the integrity of cell-cell adhesion in dynamics and reversible fashion in paracellular pathways of the BBB. Thus, the NMR and molecular docking experiments were carried out to determine the EC1 binding properties of ADT peptides.

BBB [1] = test system: BBB; parameters: method as in 3 sources, ref 49 = [49]; PMID 12754091; doi:10.1016/s0361-9230(03)00043-1; 49. Borlongan CV , Emerich DF . Facilitation of drug entry into the CNS via transient permeation of blood brain barrier: laboratory and preliminary clinical evidence from bradykinin receptor agonist, ||| ref 50 = [50]; PMID 22524793; doi:10.1021/mp3000937; 50. Zwanziger D , Hackel D , Staat C , Böcker A , Brack A , Beyermann M , A peptidomimetic tight junction modulator to improve regional analgesia . Mol Pharm . 2012; 9 : 1785 – 94 . 22524793 10.1021/ ||| ref 43-45 = [43]; PMID 25307218; doi:10.1016/bs.apha.2014.06.002; 43. Doolittle ND , Muldoon LL , Culp AY , Neuwelt EA . Delivery of chemotherapeutics across the blood-brain barrier: challenges and advances . Adv Pharmacol . 2014; 71 : 203 – 43 . 25307218 10.1016/b || [44]; 44. Smith QR . Quantitation of Blood-Brain Barrier Permeability . In: Neuwelt EA , editor. Implications of the Blood-Brain Barrier and Its Manipulation: Volume 1 Basic Science Aspects . Boston, MA : S || [45]; PMID 3930991; doi:10.1227/00006123-198509000-00004; 45. Neuwelt EA , Barnett PA , McCormick CI , Frenkel EP , Minna JD . Osmotic blood-brain barrier modification: monoclonal antibody, albumin, and methotrexate delivery to cerebrospinal fluid and brain; details: hypertonic mannitol solution; cited from earlier work
[2] = test system: blood-brain barrier (BBB); details: cited from earlier work
From the text: In addition, Gd-DTPA delivery to the brain was enhanced when co-administered with ADTC5 in living mice upon detection with magnetic resonance imaging (MRI). […] Different cadherin peptides produced different durations of the BBB opening for different sizes of del ...

BBB [3] = details: in vivo; cited from earlier work
From the text: As BBBMs, the in vivo activities of ADT and HAV peptides to modulate the BBB were transient and reversible. […] Different cadherin peptides produced different durations of the BBB opening for different sizes of del ...

[4] = target: 15N-labeled extracellular-1 (EC1) domain of human E-cadherin (human, UniProt P12830 155-367, 15N-labeled); assay: NMR titration; 1H-15N HSQC (600 MHz) of 15N-labeled EC1 titrated with peptide; 20.0 mM potassium phosphate, 5.0 mM DTT, pH 6.0, 6% D2O; chemical shift perturbation; Kd from the titration curve of a single residue (Ile53 or Leu21); details: both partners purified
15N-labeled extracellular-1 (EC1) domain of human E-cadherin, sequence (P12830 155-367): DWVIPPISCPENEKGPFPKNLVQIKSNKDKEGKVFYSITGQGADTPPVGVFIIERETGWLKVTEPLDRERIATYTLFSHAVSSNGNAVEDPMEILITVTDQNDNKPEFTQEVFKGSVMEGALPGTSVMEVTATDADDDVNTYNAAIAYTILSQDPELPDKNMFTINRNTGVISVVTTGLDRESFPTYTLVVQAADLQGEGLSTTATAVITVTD

Cyclo(1,6)Ac-CSHAVC-NH2 (disulfide) [cHAVc3]
EC1 binding and effect on cis-cadherin interactions (EC1 domain of E-cadherin): increased the porosity of the paracellular route through binding to the EC1 domain followed by disruption of the cis-cadherin interactions
EC1 binding site location (EC1 domain of E-cadherin): found at the opposite side of ADT cyclic 5 (ADTC5) binding site; also recorded: dock on the surface of EC1 that interacts with the EC2 surface from a neighboring cadherin protein; also recorded: binds to the opposite side of ADTC5-binding site

OC[C@@H](O)[C@@H](O)[C@H](O)[C@H](O)CO [mannitol]
BBB paracellular porosity by osmotic disruption (BBB [1]): increase paracellular porosity of the intercellular junctions

Ac-SHAVSS-NH2 [HAV6, reference compound]
EC1 binding site location (EC1 domain of E-cadherin): dock on the surface of EC1 that interacts with the EC2 surface from a neighboring cadherin protein
delivery of mAb to brain ([2]; 150 kDa mAb): could not deliver mAb when administered together
duration of BBB opening for transport of Gd-DTPA ([2]; Gd-DTPA): less than 45 min
delivery of Galbumin to brain ([2]; delay in the administration of HAV6 and Galbumin): could not deliver Galbumin when there was a delay in the administration of HAV6 and Galbumin
inflammation and astrogliosis (BBB [3]): did not induce inflammation and astrogliosis

B1: Ala-Asp-Thr Cyclic 5 (ADTC5) (peptide)
peptide: Ac-CDTPPVC-NH2
modifications: disulfide 1-7
SMILES: CC(=O)N[C@H]1CSSC[C@@H](C(N)=O)NC(=O)[C@H](C(C)C)NC(=O)[C@@H]2CCCN2C(=O)[C@@H]2CCCN2C(=O)[C@H]([C@@H](C)O)NC(=O)[C@H](CC(=O)O)NC1=O
notes: Cyclo(1,7)Ac-CDTPPVC-NH2; ADT peptide designed from the bulge region of the cadherin EC1 domain; also called ADT cyclic 5; source: synthetic peptide (Fmoc solid-phase synthesis, HPLC purified, cyclized by air oxidation)
Kd [4]: 35 µM

B2: ADTC7 (peptide)
peptide: Ac-CDTPPEC-NH2
modifications: disulfide 1-7
SMILES: CC(=O)N[C@H]1CSSC[C@@H](C(N)=O)NC(=O)[C@H](CCC(=O)O)NC(=O)[C@@H]2CCCN2C(=O)[C@@H]2CCCN2C(=O)[C@H]([C@@H](C)O)NC(=O)[C@H](CC(=O)O)NC1=O
notes: Cyclo(1,7)Ac-CDTPPEC-NH2; derivative of ADTC5 with Val6 replaced by Glu6; source: synthetic peptide (Fmoc solid-phase synthesis, HPLC purified, cyclized by air oxidation)
Kd [4]: 64 µM

B3: ADTC9 (peptide)
peptide: Ac-CDTPPYC-NH2
modifications: disulfide 1-7
SMILES: CC(=O)N[C@H]1CSSC[C@@H](C(N)=O)NC(=O)[C@H](Cc2ccc(O)cc2)NC(=O)[C@@H]2CCCN2C(=O)[C@@H]2CCCN2C(=O)[C@H]([C@@H](C)O)NC(=O)[C@H](CC(=O)O)NC1=O
notes: Cyclo(1,7)Ac-CDTPPYC-NH2; derivative of ADTC5 with Val6 replaced by Tyr6; source: synthetic peptide (Fmoc solid-phase synthesis, HPLC purified, cyclized by air oxidation)
Kd [4]: 181 µM
